Several values for one entry are separate records, joined by “and”; a condition that tells them apart may be missing. Equal entries are not always repeated. Structures can show the parent of a compound that is named as a salt.
Columns and labels:
full-length NCS-1 [1] = target: T1, full-length NCS-1 (Homo sapiens, UniProt P62166); assay: Tryptophan intrinsic emission fluorescence binding to full-length NCS-1; conditions: full-length NCS-1 5 μM, Trp emission at 330 nm, 35 °C, apparent Kd mean ± SD
T1 construct: For biophysical and crystallographic assays, full-length human NCS-1; made in house
T1 sequence (P62166 whole entry): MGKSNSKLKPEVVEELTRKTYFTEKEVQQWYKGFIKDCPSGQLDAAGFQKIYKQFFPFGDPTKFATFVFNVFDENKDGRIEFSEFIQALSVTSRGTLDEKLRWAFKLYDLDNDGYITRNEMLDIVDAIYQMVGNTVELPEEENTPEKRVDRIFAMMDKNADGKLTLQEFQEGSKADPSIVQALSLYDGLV
Description: To experimentally assess the binding of the FDA-approved drug library to NCS-1 we used tryptophan emission fluorescence. ,, Fluorescence intensity changes were measured at 330 nm in full-length NCS-1 upon increasing concentrations of the selected compounds (Figure A).

NCS-1ΔH10 = target: T2, NCS-1ΔH10 (Homo sapiens, UniProt P62166); assay: Intrinsic emission fluorescence binding to NCS-1ΔH10; conditions: NCS-1ΔH10, intrinsic emission fluorescence; read-out: apparent binding affinity for H10-truncated NCS-1
T2 construct: NCS-1 construct lacking helix H10; made in house
T2 sequence (P62166 1-177 limits assumed, stated change not applied): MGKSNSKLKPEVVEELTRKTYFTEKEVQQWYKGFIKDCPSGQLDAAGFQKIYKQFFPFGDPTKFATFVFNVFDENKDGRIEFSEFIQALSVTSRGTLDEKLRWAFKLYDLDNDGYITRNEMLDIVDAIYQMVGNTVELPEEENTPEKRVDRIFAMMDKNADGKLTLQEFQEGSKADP
Description: To determine the affinity of the FDA-approved drugs for full-length NCS-1 or NCS-1ΔH10, we used fluorescence techniques, since the presence of tryptophan (Trp) and tyrosine (Tyr) residues in NCS-1 sequence confers the protein intrinsic emission fluorescence when excited at 295 nm. Fluorescence intensity was monitored at 330 nm and 35 °C with a nano-DSF machine (nanoTemper). Protein concentration was set to 5 μM in a buffer containing Tris 50 mM pH 8.0, NaCl 125 mM, CaCl2 5 μM, 5% DMSO. Ligand concentration was increased up to 150 μM. Three independent experiments were performed for each protein:ligand ratio. […] In fact, compound FDA-02, 09, 11, 15, 21, and 22 were measured using SPR due to their high intrinsic emission at 330 nm. The apparent dissociation constant, K d, was obtained by using a least-squares algorithm to fit the recorded data to the equation previously described. Apparent K d values are reported as mean ± SD. ,
Prior crystallization, the contribution of the helix H10 to ligand binding was assessed in case this information could guide construct selection for structural studies. […] Given the initial high affinity of AZS for full-length NCS-1, the affinity for the H10-truncated construct was not measured. Initial crystallization screenings yielded to crystals of ATV in complex with full-length NCS-1. […]

[2] = known drug property listed in Supplementary Table 1, no reference given; cited from earlier work
[3] = tested on: D2R subcellular localization in HEK293 cells; assay: Sequential immunostaining for D2R localization (membrane vs cytoplasm); format: cell-based, human; conditions: for effect of trafficking tool compounds on NCS-1-induced D2R membrane localization: HEK293 cells, NCS-1 overexpression
Description: HEK293 cells were seeded on poly-D-lysine-coated glass coverslips in 24-well plates. Following transfection and drug treatments, cells were fixed with 2% paraformaldehyde (PFA) for 10 min and with 4% PFA for an additional 10 min at room temperature. Coverslips with fixed cells were then blocked in PBS containing 10% normal goat serum (NGS) for 30 min at room temperature.
After three PBS washes, fluorescence was fixed with 10% formaldehyde for 3 min. The second round started with a blocking step using PBS containing 10% NGS and 0.03% Triton X-100 for 1 h at room temperature. […] Coverslips were washed with PBS and mounted using ProLong Gold Antifade (Thermo Fisher Scientific) with Hoechst for nuclear counterstaining. Confocal images were acquired using either a Leica SP5 or a Nikon ECLIPSE Ti microscope, depending on the experiment. […] Individual confocal images were processed by setting intensity thresholds for the green (cytoplasmic) and red (membrane) channels. Fluorescence intensity was then measured separately for each channel, and the relative proportion of green to red signal was calculated for each image.

NCS-1/D2R interaction = target: T3, NCS-1/D2R interaction (Homo sapiens, UniProt P62166); assay: Proximity ligation assay (PLA) with flow cytometry; format: cell-based; conditions: HEK293 cells, 5 μM, 16 h; vehicle set to 100%; mean ± SD
T3 construct: expressed in transfected cells; host or cells: HEK293
T3 sequence (P62166 2-190 limits assumed): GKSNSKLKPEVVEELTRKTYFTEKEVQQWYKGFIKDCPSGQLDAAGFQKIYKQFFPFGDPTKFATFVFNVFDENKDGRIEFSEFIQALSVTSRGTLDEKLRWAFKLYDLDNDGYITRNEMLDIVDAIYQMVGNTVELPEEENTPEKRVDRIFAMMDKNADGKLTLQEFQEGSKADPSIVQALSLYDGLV

full-length NCS-1 [4] = target: T1, full-length NCS-1; assay: Surface plasmon resonance over CM4-immobilized NCS-1; format: binding; conditions: SPR, NCS-1 immobilized on CM4 chip, 25 °C; used for compounds that emit at 330 nm; read-out: NCS-1/FDA Affinity, Kd
Description: In these experiments, full-length NCS-1 was cross-linked to the surface of the biosensor, through its lysine amino acids, since these residues are concentrated on the upper surface and opposite to the hydrophobic crevice. This arrangement ensured that the hydrophobic crevice remained exposed to the solvent.
NCS-1 was immobilized on a CM4 sensor chip (Biacore, GE) following a standard amine coupling method. The carboxymethyl dextran surface of the flow cell 2 was activated by injecting a 1:1 mixture of 0.4 M EDC and 0.1 M NHS for 7 min. The protein was then covalently coupled to the surface via a 7 min injection at several dilutions, with a final concentration of 100 μg/mL in 10 mM sodium acetate, pH 4.0. Unreacted N-hydroxysuccinimide esters were quenched by a 7 min injection of 0.1 M ethanolamine-HCl pH 8.0, achieving an immobilization level of 5000 RUs. Flow cell 1, subjected to the same amine coupling procedure but without protein, served as a reference (Supplementary Figure 3A). Prior to use, 10 mM stock solutions of FDA-approved drugs were serially diluted to final concentration of 100 μM in running buffer. […] After dissociation, an additional wash step was performed using a 50% DMSO solution. Regeneration was not required.
(§1) Sensorgrams data were double-referenced and solvent-corrected using the BiaEvaluation X-100 software (Biacore, GE).

[5] = Solubility under the binding assay conditions; format: physicochemical; conditions: SPR running buffer; precipitated on the sensor chip
Description: as §1

[6] = read-out: NCS-1/FDA Affinity, Kd

Q: For CC(C)c1c(C(=O)Nc2ccccc2)c(-c2ccccc2)c(-c2ccc(F)cc2)n1CC[C@@H](O)C[C@@H](O)CC(=O)O [Atorvastatin], which Kd (full-length NCS-1 [1]; [6]) is on record?
A: Its Kd is 53 µM and 53.1 µM.

Q: What about the Kd (NCS-1ΔH10) of the same compound?
A: The Kd was 17 µM.

Q: With CCOc1nc2cccc(C(=O)OCc3oc(=O)oc3C)c2n1Cc1ccc(-c2ccccc2-c2noc(=O)[nH]2)cc1 [Azilsartan medoxomil] as the compound, how does the “Crossing the blood-brain barrier” value [2] read?
A: The value was “Low penetrance”.

Q: For C[C@H]1CCC/C=C/[C@@H]2C[C@H](O)C[C@H]2[C@H](O)/C=C/C(=O)O1 [BFA, Brefeldin A], which “effect of trafficking tool compounds on NCS-1-induced D2R membrane localization” value (“effect of trafficking tool compounds” for short) [3] is on record?
A: The value was “prevented the NCS-1-induced increase in membrane D2R”.

Q: With CCN(CC)CCCC(C)Nc1ccnc2cc(Cl)ccc12 (centres unmarked) [Chloroquine] as the compound, how does the Kd (full-length NCS-1 [1]; [6]) read?
A: The Kd was 200 ± 35 µM.

Q: And the “Crossing the blood-brain barrier” value [2]?
A: Its value is “Yes”.

Q: Which “Crossing the blood-brain barrier” value [2] does the source give for CCN(CC)CCOc1ccc(C(=C(Cl)c2ccccc2)c2ccccc2)cc1 [Clomiphene citrate] here?
A: Its value is “No”.

Q: With CCCCCCOC(=O)NC(=N)c1ccc(NCc2nc3cc(C(=O)N(CCC(=O)OCC)c4ccccn4)ccc3n2C)cc1 [Dabigatran etexilate] as the compound, how does the Kd (full-length NCS-1 [1]; [6]) read?
A: Its Kd is 13.2 ± 2.5 µM.

Q: What about the “Crossing the blood-brain barrier” value [2] of the same compound?
A: The value was “No”.

Q: With COC(=O)N[C@H](C(=O)N1CCC[C@H]1c1nc(-c2ccc(-c3ccc(-c4c[nH]c([C@@H]5CCCN5C(=O)[C@@H](NC(=O)OC)C(C)C)n4)cc3)cc2)c[nH]1)C(C)C [Daclatasvir] as the compound, how does the Kd (full-length NCS-1 [1]; [6]) read?
A: Its Kd is 7.2 ± 0.1 µM.

Q: What about the “PPI modulation (PLA): NCS-1/D2R binding relative to vehicle-treated controls” value (NCS-1/D2R interaction) of the same compound?
A: Its value is 114.6 ± 17.4%.

Q: What about the “Crossing the blood-brain barrier” value [2] of the same compound?
A: The value was “No”.

Q: For CC(C)CN(C[C@@H](O)[C@H](Cc1ccccc1)NC(=O)O[C@H]1CO[C@H]2OCC[C@H]21)S(=O)(=O)c1ccc(N)cc1 [Darunavir], which “Crossing the blood-brain barrier” value [2] is on record?
A: Its value is “No”.

Q: For O=C(N/N=C/c1ccc(O)c(O)c1)c1cc2ccccc2cc1O [Dynasore], which “effect of trafficking tool compounds” value [3] is on record?
A: Its value is “did not significantly affect”.

Q: With CN1C[C@H](C(=O)N[C@]2(C)O[C@@]3(O)[C@@H]4CCCN4C(=O)[C@H](Cc4ccccc4)N3C2=O)C=C2c3cccc4[nH]cc(c34)C[C@H]21 [Ergotamine] as the compound, how does the Kd (full-length NCS-1 [1]; NCS-1/FDA Affinity, Kd) read?
A: The Kd was 122 ± 18 µM.

Q: What about the “Crossing the blood-brain barrier” value [2] of the same compound?
A: The value was “No”.

Q: Which “Crossing the blood-brain barrier” value [2] does the source give for C[C@]12CC[C@@H]3c4ccc(O)cc4C[C@@H](CCCCCCCCC[S+]([O-])CCCC(F)(F)C(F)(F)F)[C@H]3[C@@H]1CC[C@@H]2O (some centres unmarked) [Faslodex] here?
A: The value was “No”.

Q: Which results are given for CCN(CCO)CCCC(C)Nc1ccnc2cc(Cl)ccc12 (centres unmarked) [Hydroxychloroquine sulfate]?
A: Kd (full-length NCS-1 [1]; [6]): 353 ± 138 µM; Crossing the blood-brain barrier [2]: Yes

Q: Which results are given for CCCCCCCN(CC)CCCC(O)c1ccc(NS(C)(=O)=O)cc1 (centres unmarked) [Ibutilide fumarate]?
A: NCS-1/FDA Affinity, Kd (full-length NCS-1 [1]): No affinity; Crossing the blood-brain barrier [2]: No

Q: For Cc1ccc(NC(=O)c2ccc(CN3CCN(C)CC3)cc2)cc1Nc1nccc(-c2cccnc2)n1 [Imatinib], which “Crossing the blood-brain barrier” value [2] is on record?
A: The value was “Yes”.

Q: With CS(=O)(=O)CCNCc1ccc(-c2ccc3ncnc(Nc4ccc(OCc5cccc(F)c5)c(Cl)c4)c3c2)o1 [Lapatinib] as the compound, how does the “Crossing the blood-brain barrier” value [2] read?
A: Its value is “No”.

Q: Which Kd (full-length NCS-1 [1]; [6]) does the source give for Cc1c(O)cccc1C(=O)N[C@@H](CSc1ccccc1)[C@H](O)CN1C[C@H]2CCCC[C@H]2C[C@H]1C(=O)NC(C)(C)C [Nelfinavir] here?
A: Its Kd is 47.6 ± 4.1 µM.

Q: And the “PPI modulation (PLA): NCS-1/D2R binding relative to vehicle-treated controls” value (NCS-1/D2R interaction)?
A: Its value is 112.0 ± 12.7%.

Q: What about the “Crossing the blood-brain barrier” value [2] of the same compound?
A: Its value is “No”.

Q: Which “Crossing the blood-brain barrier” value [2] does the source give for CNCCCC1c2ccccc2C=Cc2ccccc21 [Protriptyline hydrochloride] here?
A: Its value is “Yes”.

Q: Which “effect of trafficking tool compounds” value [3] does the source give for CCCN(CCC)CCc1cccc2c1CC(=O)N2 [Ropinirole] here?
A: The value was “reversed this effect”.

Q: What does the source list for OCc1cc(C(O)CNCCCCCCOCCCCc2ccccc2)ccc1O (centres unmarked) [Salmeterol]?
A: Kd (full-length NCS-1 [4]): 68.2 ± 17.9 µM; PPI modulation (PLA): NCS-1/D2R binding relative to vehicle-treated controls (NCS-1/D2R interaction): 96.5 ± 17.2%; Crossing the blood-brain barrier [2]: Yes

Q: Which “Crossing the blood-brain barrier” value [2] does the source give for CCN(CC)CCNC(=O)c1c(C)[nH]c(/C=C2\C(=O)Nc3ccc(F)cc32)c1C [Sunitinib] here?
A: The value was “No”.

Q: Which Kd (full-length NCS-1 [1]; [6]) does the source give for N#Cc1ccc2[nH]cc(CCCCN3CCN(c4ccc5oc(C(N)=O)cc5c4)CC3)c2c1 [Vilazodone] here?
A: Its Kd is 34 µM and 34.4 µM.

Q: What about the Kd (NCS-1ΔH10) of the same compound?
A: Its Kd is 8 µM.

Q: And the “effect on D2R localization in the absence of NCS-1 overexpression” value ([3]; HEK293 cells transfected with D2R alone)?
A: The value was “affected D2R localization”.

Q: What about the “Crossing the blood-brain barrier” value [2] of the same compound?
A: The value was “Yes”.

Q: Which “solubility under the experimental conditions” value [5] does the source give for O=C1Cc2cc(CCN3CCN(c4nsc5ccccc45)CC3)c(Cl)cc2N1 [ziprasidone] here?
A: Its value is “low solubility”.

Q: For Capreomycin sulfate, which “effect on NCS-1-induced D2R membrane localization” value ([3]; HEK293 cells cotransfected with D2R and NCS-1, 5 μM, 2 h) is on record?
A: The value was “modest effect”.
